Reference: paper PMC6934455, “Molecular Dynamics model of peptide-protein conjugation: case study of covalent complex between Sos1 peptide and N-terminal SH3 domain from Grb2” (Scientific Reports, 2019)
pKd: −log10 of the molar value.

Biological target: T1, C32S Grb2 N-SH3 (Homo sapiens, UniProt P62993, C32S)
T1 construct: encoding residues 2–59 of human Grb2; His6 (N); host or cells: E. coli Rosetta DE3 (Novagen)
Experiment: 1HN,15N-HSQC NMR titration, noncovalent binding
Excerpt: For quantitative analysis, we have selected a group of 8 well-resolved peaks showing substantial titration effects. The two-dimensional HSQC titration data for these peaks have been fitted using the program TITAN[39] on per-residue basis, as well as collectively (illustrated in Fig. 1D; for complete summary see Fig. S1).
pET-28 vectors for Grb2 N-SH3 (WT and C32S) encoding residues 2–59 of human Grb2 have been purchased from GenScript. The protein additionally containing N-terminal His6-tag was expressed in Rosetta DE3 cells (Novagen) using minimal M9 media. ^15N-NH4Cl and ^13C-glucose supplements have been used for isotope labeling. Protein expression was induced when OD600 reached 0.8. After 16 hours of incubation at 37 °C, cells were harvested, suspended in the standard lysis buffer (containing 2 mM of DTT) and then homogenized by SPEX SamplePrep 6870 Freezer/Mill followed by three rounds of sonication on ice. The sample was purified using Ni-affinity and size-exclusion chromatography (columns GE HisTrap HP and GE Sephacryl S-200 HR).
All measurements were conducted at 25 °C using 500 MHz Bruker Avance III spectrometer equipped with TBI room temperature probe. […] The buffer additionally contained 150 mM NaCl.
The peptide concentration was incremented from 0 to 160 μM in a step of 20 μM and then brought to 240 μM. […] The results were analyzed using the program TITAN[39].

T1 sequence (P62993 2-59 C32S): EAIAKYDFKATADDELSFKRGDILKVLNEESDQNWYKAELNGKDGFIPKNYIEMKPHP

Compound: CC(C)[C@H](N)C(=O)N1CCC[C@H]1C(=O)N1CCC[C@H]1C(=O)N1CCC[C@H]1C(=O)N[C@H](C(=O)N1CCC[C@H]1C(=O)N1CCC[C@H]1C(=O)N[C@@H](CCCNC(=N)N)C(=O)N[C@@H](CCCNC(=N)N)C(=O)N[C@@H](CCCNC(=N)N)C(=O)N[C@@H](CCCCNC(=O)CCl)C(=O)O)C(C)C [Sos1-X′]
- pKd: 5.31
